{"source": "ChEMBL document CHEMBL1141350", "about": "“Pentaketides relating to aspinonene and dihydroaspyrone from a marine-derived fungus, Aspergillus ostianus” (2007)", "key": {"Staphylococcus aureus": {"tested_on": "Staphylococcus aureus", "test": "Antibacterial activity against methicillin-resistant Staphylococcus aureus at 100 ug/disc", "type": "functional, organism-based"}, "L1210": {"tested_on": "L1210", "test": "Cytotoxicity against mouse L1210 cells at 25 ppm", "type": "functional"}}, "note": "Activity calls are given as the source filed them. The rule behind the calls is not given here."}
{"smiles": "C[C@H](O)/C=C/[C@@](O)(CO)[C@@H]1O[C@H]1C", "note": "[ASPINONENE]", "values": [{"measurement": "Activity", "setting": "Staphylococcus aureus", "result": "inactive"}, {"measurement": "inhibition at 25 ppm", "setting": "L1210", "result": 27, "unit": "%"}]}
{"smiles": "CC(=O)/C=C/C(=C/[C@H](C)O)CO", "values": [{"measurement": "Activity", "setting": "Staphylococcus aureus", "result": "inactive"}]}
{"smiles": "CO[C@](C(=O)O[C@@H](C)CC1=C[C@H](O)[C@@H](C)OC1=O)(c1ccccc1)C(F)(F)F", "values": [{"measurement": "inhibition at 25 ppm", "setting": "L1210", "result": 25, "unit": "%"}]}
{"smiles": "C[C@H](O)/C=C(/C=C/[C@H](C)O)CO", "values": [{"measurement": "Activity", "setting": "Staphylococcus aureus", "result": "inactive"}]}
{"smiles": "C[C@H](O)CC1=C[C@H](O)[C@@H](C)OC1=O", "values": [{"measurement": "Activity", "setting": "Staphylococcus aureus", "result": "inactive"}]}
{"smiles": "C[C@H](O)/C=C(/C=C/[C@@H](C)O)CO", "values": [{"measurement": "Activity", "setting": "Staphylococcus aureus", "result": "inactive"}, {"measurement": "Activity", "setting": "L1210", "result": "inactive"}]}
